Experimental data published in patent US20190365906A1, “RANDOM COPOLYMER THERAPEUTIC AGENT CARRIERS AND ASSEMBLIES THEREOF” (University of Washington through its Center for …, priority 2013, published 2019).

System: HeLa cells
Assay: Live-cell fluorescence microscopy of intracellular distribution of transferrin-polymer conjugates
Assay type: cell-based, human
Details: 1 hour at 37° C.
Procedure: The intracellular distribution of fluorescently labeled transferrin-polymer conjugates was evaluated in cells using live-cell fluorescence microscopy. Cells were seeded in chamber slides at a concentration of 5000 cells/well. After allowing the cells adhere for 18 hours the media was replaced with fresh media containing the appropriate concentration of the copolymer-transferrin conjugates. Thirty minutes prior to imaging Hoechst (5 μg/mL) was added to the media and allowed to incubate at 37° C. After this time, the media was carefully aspirated and replaced with PBS. Immediately prior to imaging individual wells were aspirated and then treated with 2 μL of a 10 mg/mL cell mask stock in 200 μL of ice cold PBS. After 3 minutes the PBS was removed and washed three times with additional ice cold PBS. The mediChamber slides were placed on a Live-Cell Fluorescence Microscope (Nikon Ti-E) equipped with an environmental control chamber. […] After image acquisition, image stacks were deconvolved using object-based measurement software, Velocity (Perkin Elmer), to remove out-of focus fluorescence for the identification of conjugate containing compartments. To deconvolved image stacks, point spread functions were calculated for the green, blue, and deep red channel and applied using 25 iterations to reach a near 100 percent confidence interval. […]

With “fluorescently (ALEXA 488) labeled Transferrin” the “intracellular localisation of fluorescence” value was “strongly localized within endosomes/lysosomes”.
